The values below come from patent US20240307382A1, “MODULATORS OF THE INTEGRATED STRESS PATHWAY” (Calico Life Sciences LLC, priority 2017, published 2024).

pEC50: −log10 of the molar value.

The subject of this experiment is HEK293T cells carrying the ATF4 luciferase reporter. The experiment in a line: ATF4-Luc assay (ATF4 luciferase reporter, tunicamycin-treated cells). To be noted: Homo sapiens, HEK-293T, 1 μg/mL tunicamycin, 7 hours. The format is cell-based. The gist of the method:
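A stable HEK293T reporter line was made by placing the full-length human ATF4 5′-UTR ahead of a firefly luciferase sequence without its start methionine, delivered by retroviral transduction and puromycin selection. Cells were seeded at 30,000 per well in polylysine-coated 384-well plates, exposed next day to 1 μg/mL tunicamycin plus compound for 7 hours, and luminescence was read with One Glo.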
With `Cc1csc(C(=O)NC23CCC(NC(=O)COc4ccc(Cl)cc4)(CC2)[C@@H](O)C3)n1` [Compound 1064, N-{(3S)-4-[2-(4-chlorophenoxy)acetamido]-3-hydroxybicyclo[2.2.2]octan-1-yl}-4-methyl-1,3-thiazole-2-carboxamide], the pEC50 is 6.00 to 6.60. Take `Cc1csc(C(=O)NC23CCC(NC(=O)COc4ccc(Cl)c(F)c4)(CC2)[C@@H](O)C3)n1` [Compound 1065, N-{(3S)-4-[2-(4-chloro-3-fluorophenoxy)acetamido]-3-hydroxybicyclo[2.2.2]octan-1-yl}-4-methyl-1,3-thiazole-2-carboxamide]: the pEC50 was over 7.30. With `O=C(COc1ccc(Cl)c(F)c1)NC12CCC(NC(=O)c3ccn(-c4ccc(Cl)c(Cl)c4)n3)(CC1)[C@@H](O)C2` [Compound 1066, N-{(2S)-4-[2-(4-chloro-3-fluorophenoxy)acetamido]-2-hydroxybicyclo[2.2.2]octan-1-yl}-1-(3,4-dichlorophenyl)-1H-pyrazole-3-carboxamide], the pEC50 is over 7.30.

Consider `Cc1nc(C(=O)NC23CC(NC(=O)COc4ccc(Cl)c(F)c4)(C2)C3)n(C)n1` [Compound 1067, N-{3-[2-(4-chloro-3-fluorophenoxy)acetamido]bicyclo[1.1.1]pentan-1-yl}-1,3-dimethyl-1H-1,2,4-triazole-5-carboxamide], for which the pEC50 was 6.60 to 7.30. The figure for `O=C(COc1ccc(Cl)c(F)c1)NC12CCC(NC(=O)c3n[nH]c(-c4ccc(Cl)cc4)n3)(CC1)C[C@@H]2O` [Compound 1068, N-{(3S)-4-[2-(4-chloro-3-fluorophenoxy)acetamido]-3-hydroxybicyclo[2.2.2]octan-1-yl}-5-(4-chlorophenyl)-1H-1,2,4-triazole-3-carboxamide] is under 5.70; for `COc1ncc(OCC(=O)NC23CCC(NC(=O)c4cc(C(F)F)no4)(CC2)C[C@@H]3O)cn1` [Compound 1069, 3-(difluoromethyl)-N-[(3S)-3-hydroxy-4-{2-[(2-methoxypyrimidin-5-yl)oxy]acetamido}bicyclo[2.2.2]octan-1-yl]-1,2-oxazole-5-carboxamide] it is 5.70 to 6.00; for `O=C(COc1cccc(F)c1)NC12CCC(NC(=O)c3cc(C(F)F)no3)(CC1)C[C@@H]2O` [Compound 1070, 3-(difluoromethyl)-N-{(3S)-4-[2-(3-fluorophenoxy)acetamido]-3-hydroxybicyclo[2.2.2]octan-1-yl}-1,2-oxazole-5-carboxamide] it is 6.60 to 7.30. With `O=C(COc1ccccn1)NC12CCC(NC(=O)c3cc(C(F)F)no3)(CC1)C[C@@H]2O` [Compound 1071, 3-(difluoromethyl)-N-[(3S)-3-hydroxy-4-{2-[(pyridin-2-yl)oxy]acetamido}bicyclo[2.2.2]octan-1-yl]-1,2-oxazole-5-carboxamide], the pEC50 was under 5.70.

For `O=C(COc1cccc(Cl)c1)NC12CCC(NC(=O)c3cc(C(F)F)no3)(CC1)C[C@@H]2O` [Compound 1072, N-{(3S)-4-[2-(3-chlorophenoxy)acetamido]-3-hydroxybicyclo[2.2.2]octan-1-yl}-3-(difluoromethyl)-1,2-oxazole-5-carboxamide], the pEC50 was 6.60 to 7.30. Consider `COc1ncc(C(=O)NC23CCC(NC(=O)COc4ccc(Cl)c(F)c4)(CC2)[C@@H](O)C3)cn1` [Compound 1073, N-{(3S)-4-[2-(4-chloro-3-fluorophenoxy)acetamido]-3-hydroxybicyclo[2.2.2]octan-1-yl}-2-methoxypyrimidine-5-carboxamide], for which the pEC50 is 6.60 to 7.30.

With `COc1ncc(C(=O)NC23CCC(NC(=O)COc4ccc(C(F)(F)F)c(F)c4)(CC2)[C@@H](O)C3)cn1` [Compound 1074, N-[(3S)-4-{2-[3-fluoro-4-(trifluoromethyl)phenoxy]acetamido}-3-hydroxybicyclo[2.2.2]octan-1-yl]-2-methoxypyrimidine-5-carboxamide], the pEC50 was 6.60 to 7.30. On to `O=C(COc1ccc(Cl)c(F)c1)NC12CCC(NC(=O)c3nc4cc(F)c(F)cc4o3)(CC1)C[C@@H]2O` [Compound 1075, N-{(3S)-4-[2-(4-chloro-3-fluorophenoxy)acetamido]-3-hydroxybicyclo[2.2.2]octan-1-yl}-5,6-difluoro-1,3-benzoxazole-2-carboxamide], for which the pEC50 was over 7.30.

On to `O=C(COc1ccc(C(F)(F)F)nc1)NC12CCC(NC(=O)c3cc4cc(Cl)ccc4o3)(CC1)C[C@@H]2O` [Compound 1076, 5-chloro-N-[(3S)-3-hydroxy-4-(2-{[6-(trifluoromethyl)pyridin-3-yl]oxy}acetamido)bicyclo[2.2.2]octan-1-yl]-1-benzofuran-2-carboxamide], for which the pEC50 is 6.60 to 7.30.

Take `O=C(COc1ccc(Cl)c(F)c1)NC12CCC(NC(=O)c3cc4cc(Cl)ccc4o3)(CC1)C[C@@H]2O` [Compound 1077, 5-chloro-N-{(3S)-4-[2-(4-chloro-3-fluorophenoxy)acetamido]-3-hydroxybicyclo[2.2.2]octan-1-yl}-1-benzofuran-2-carboxamide]: the pEC50 was over 7.30. With `O=C(CCOc1ccc(Cl)c(F)c1)NC12CCC(NC(=O)c3cc(C(F)F)no3)(CC1)C[C@@H]2O` [Compound 1078, N-{(3S)-4-[3-(4-chloro-3-fluorophenoxy)propanamido]-3-hydroxybicyclo[2.2.2]octan-1-yl}-3-(difluoromethyl)-1,2-oxazole-5-carboxamide] the figure was 6.00 to 6.60; with `O=C(CCOc1ccc(Cl)c(F)c1)NC12CC(NC(=O)c3ccc(OC(F)(F)F)cn3)(C1)C2` [Compound 1079, N-{3-[3-(4-chloro-3-fluorophenoxy)propanamido]bicyclo[1.1.1]pentan-1-yl}-5-(trifluoromethoxy)pyridine-2-carboxamide], under 5.70. As for `O=C(COc1cc(F)c2cn[nH]c2c1)NC12CCC(NC(=O)c3cnc(C(F)F)cn3)(CC1)[C@@H](O)C2` [Compound 1080, 5-(difluoromethyl)-N-[(2S)-4-{2-[(4-fluoro-1H-indazol-6-yl)oxy]acetamido}-2-hydroxybicyclo[2.2.2]octan-1-yl]pyrazine-2-carboxamide], the pEC50 was 6.60 to 7.30. On to `Cc1onc(C(=O)NC23CC(NC(=O)COc4ccc(Cl)c(F)c4)(C2)C3)c1C(=O)Nc1ncc(C(F)(F)F)cc1Cl` [Compound 1081, N^3-{3-[2-(4-chloro-3-fluorophenoxy)acetamido]bicyclo[1.1.1]pentan-1-yl}-N^4-[3-chloro-5-(trifluoromethyl)pyridin-2-yl]-5-methyl-1,2-oxazole-3,4-dicarboxamide], for which the pEC50 was under 5.70. `O=C(COc1ccc(Cl)c(F)c1)NC12CCC(NC(=O)c3ccc4c(n3)CCCC4)(CC1)[C@@H](O)C2` [Compound 1082, N-{(2S)-4-[2-(4-chloro-3-fluorophenoxy)acetamido]-2-hydroxybicyclo[2.2.2]octan-1-yl}-5,6,7,8-tetrahydroquinoline-2-carboxamide]: the pEC50 was over 7.30. The figure for `O=C(COc1ccc(OC(F)(F)F)cc1)NC12CCC(NC(=O)c3ccc(Cl)c(F)c3)(CC1)[C@@H](O)C2` [Compound 1083, 4-chloro-3-fluoro-N-[(2S)-2-hydroxy-4-{2-[4-(trifluoromethoxy)phenoxy]acetamido}bicyclo[2.2.2]octan-1-yl]benzamide] is under 5.70; for `O=C(COc1ccc(Cl)c(F)c1)NC12CC(NC(=O)c3cncc(CO)n3)(C1)C2` [Compound 1084, N-{3-[2-(4-chloro-3-fluorophenoxy)acetamido]bicyclo[1.1.1]pentan-1-yl}-6-(hydroxymethyl)pyrazine-2-carboxamide] it is 5.70 to 6.00. With `O=C(COc1ccc(Cl)c(F)c1)NC12CC(NC(=O)c3cc(F)cc4c3OCOC4)(C1)C2` [Compound 1085, N-{3-[2-(4-chloro-3-fluorophenoxy)acetamido]bicyclo[1.1.1]pentan-1-yl}-6-fluoro-2H,4H-1,3-benzodioxine-8-carboxamide], the pEC50 is 5.70 to 6.00. As for `O=C(COc1ccc(Cl)c(F)c1)NC12CCC(NC(=O)c3cccnc3CO)(CC1)C[C@@H]2O` [Compound 1086, N-{(3S)-4-[2-(4-chloro-3-fluorophenoxy)acetamido]-3-hydroxybicyclo[2.2.2]octan-1-yl}-2-(hydroxymethyl)pyridine-3-carboxamide], the pEC50 is under 5.70.

For `O=C(COc1ccc(OC(F)(F)F)cc1)NC12CCC(NC(=O)c3cccnc3CO)(CC1)C[C@@H]2O` [Compound 1087, 2-(hydroxymethyl)-N-[(3S)-3-hydroxy-4-{2-[4-(trifluoromethoxy)phenoxy]acetamido}bicyclo[2.2.2]octan-1-yl]pyridine-3-carboxamide], the pEC50 is under 5.70. With `CN(C)C(=O)c1cccnc1C(=O)NC12CC(NC(=O)COc3ccc(Cl)c(F)c3)(C1)C2` [Compound 1088, N^2-{3-[2-(4-chloro-3-fluorophenoxy)acetamido]bicyclo[1.1.1]pentan-1-yl}-N^3,N^3-dimethylpyridine-2,3-dicarboxamide], the pEC50 is 5.70 to 6.00.

With `O=C(COc1ccc(Cl)c(F)c1)NC12CC(NC(=O)c3ccc(Cl)c(O)c3)(C1)C2` [Compound 1089, 4-chloro-N-{3-[2-(4-chloro-3-fluorophenoxy)acetamido]bicyclo[1.1.1]pentan-1-yl}-3-hydroxybenzamide], the pEC50 was 6.60 to 7.30. As to `COCc1ccc(C(=O)NC23CC(NC(=O)COc4ccc(Cl)c(F)c4)(C2)C3)cn1` [Compound 1090, N-{3-[2-(4-chloro-3-fluorophenoxy)acetamido]bicyclo[1.1.1]pentan-1-yl}-6-(methoxymethyl)pyridine-3-carboxamide], the pEC50 is 6.00 to 6.60.

Consider `O=C(COc1ccc(Cl)c(F)c1)NC12CC(NC(=O)c3ncccc3CO)(C1)C2` [Compound 1091, N-{3-[2-(4-chloro-3-fluorophenoxy)acetamido]bicyclo[1.1.1]pentan-1-yl}-3-(hydroxymethyl)pyridine-2-carboxamide], for which the pEC50 is 6.00 to 6.60. With `COc1cccnc1C(=O)NC12CC(NC(=O)COc3ccc(Cl)c(F)c3)(C1)C2` [Compound 1092, N-{3-[2-(4-chloro-3-fluorophenoxy)acetamido]bicyclo[1.1.1]pentan-1-yl}-3-methoxypyridine-2-carboxamide], the pEC50 is under 5.70.

The term pEC50 denotes −log10 of the EC50, conventionally taken in molar units.
